Source: US20190375708A1 (VenatoRx Pharmaceuticals, Inc., priority 2018, published 2019)

Assays:
[1] = system: HBV replication in HepAD38 cells; assay: Anti-HBV replication assay in HepAD38 cells (QPCR of extracellular HBV DNA); type: cell-based, HBV (genotype D, serotype ayw); conditions: Hepatitis B virus, 168 h, 7 days incubation, extracellular HBV DNA by QPCR, read-out: Anti-HBV EC50
Procedure, shortened: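 Tet-off HepAD38, 7-day compound exposure ([…], 1 log10 steps, DMSO vehicle), 37 °C. Extracellular HBV DNA by QPCR, copies/mL via standard curve, % inhibition vs vehicle, EC50 by 4-parameter regression. Entecavir as positive control.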

[2] = In vitro cytotoxicity assay (MTT cell viability) in HepG2 cells; type: cell-based, human; conditions: human
Procedure, shortened: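 Parental HepG2 cells in EMEM + 10% FBS were exposed to compounds (8 half-log dilutions, 30 μM to 1.0 nM) for 7 days at 37 °C, 5% CO2. MTT was then added for 3-4 h, formazan dissolved in DMSO and absorbance read at 492 nm; CC50 came from 4-parameter fits against vehicle controls.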

SMILES | EC50 [1] | CC50 at 7 days [2]
Cc1cc(NC(=O)c2c(C)c(C(=O)C(=O)N[C@H](C)[C@@H](C)O)n(C)c2C)ccc1F [Example 199, N-(4-fluoro-3-methylphenyl)-5-(2-(((2R,3R)-3-hydroxybutan-2-yl)amino)-2-oxoacetyl)-1,2,4-trimethyl-1H-pyrrole-3-carboxamide] | < 0.05 µM | > 30 µM
Cc1cc(NC(=O)c2c(C)c(C(=O)C(=O)NC(C)(C)c3noc(CN(C)C)n3)n(C)c2C)cnc1F [Example 200, 5-(2-((2-(5-((dimethylamino)methyyl)-1,2,4-oxadiazol-3-yl)propan-2-yl)amino)-2-oxoacetyl)-N-(6-fluoro-5-methylpyridin-3-yl)-1,2,4-trimethyl-1H-pyrrole-3-carboxamide] | 0.05 to 0.499 µM | > 30 µM
Cc1nnc(C2(NC(=O)C(=O)c3c(C)c(C(=O)Nc4ccc(F)c(C)c4)c(C)n3CCF)CC2)o1 [Example 201, N-(4-fluoro-3-methylphenyl)-1-(2-fluoroethyl)-2,4-dimethyl-5-(2-((1-(5-methyl-1,3,4-oxadiazol-2-yl)cyclopropyl)amino)-2-oxoacetyl)-1H-pyrrole-3-carboxamide] | 0.05 to 0.499 µM | > 30 µM
Cc1cc(NC(=O)c2c(C)c(C(=O)C(=O)NC(C)(C)c3nc(CN(C)C)no3)n(CCF)c2C)ccc1F [Example 202, 5-(2-((2-(3-((dimethylamino)methyl)-1,2,4-oxadiazol-5-yl)propan-2-yl)amino)-2-oxoacetyl)-N-(4-fluoro-3-methylphenyl)-1-(2-fluoroethyl)-2,4-dimethyl-1H-pyrrole-3-carboxamide] | 0.05 to 0.499 µM | > 30 µM
Cc1noc(C2(NC(=O)C(=O)c3c(C)c(C(=O)Nc4ccc(F)c(C)c4)c(C)n3CCF)CC2)n1 [Example 203, N-(4-fluoro-3-methylphenyl)-1-(2-fluoroethyl)-2,4-dimethyl-5-(2-((1-(3-methyl-1,2,4-oxadiazol-5-yl)cyclopropyl)amino)-2-oxoacetyl)-1H-pyrrole-3-carboxamide] | < 0.05 µM | > 30 µM
Cc1cc(NC(=O)c2c(C)c(C(=O)C(=O)Nc3cccnc3)n(C)c2C)ccc1F [Example 204, N-(4-fluoro-3-methylphenyl)-1,2,4-trimethyl-5-(2-oxo-2-(pyridin-3-ylamino)acetyl)-1H-pyrrole-3-carboxamide] | < 0.05 µM | > 30 µM
Cc1cc(NC(=O)c2c(C)c(C(=O)C(=O)N[C@H]3CC[C@@](O)(C(F)(F)F)CC3)n(C)c2C)cnc1F [Example 205, N-(6-fluoro-5-methylpyridin-3-yl)-5-(2-(((1r,4r)-4-hydroxy-4-(trifluoromethyl)cyclohexyl)amino)-2-oxoacetyl)-1,2,4-trimethyl-1H-pyrrole-3-carboxamide] | < 0.05 µM | > 30 µM
Cc1cc(NC(=O)c2c(C)c(C(=O)C(=O)NC3(C)CC(F)(F)C3)n(C)c2C)cnc1F [Example 206, 5-(2-((3,3-difluoro-1-methylcyclobutyl)amino)-2-oxoacetyl)-N-(6-fluoro-5-methylpyridin-3-yl)-1,2,4-trimethyl-1H-pyrrole-3-c carboxamide] | < 0.05 µM | > 30 µM
Cc1cc(NC(=O)c2c(C)c(C(=O)C(=O)N[C@H]3CC[C@@](O)(C(F)(F)F)CC3)n(C)c2C)ccc1F [Example 207, N-(4-fluoro-3-methylphenyl)-5-(2-(((1r,4r)-4-hydroxy-4-(trifluoromethyl)cyclohexyl)amino)-2-oxoacetyl)-1,2,4-trimethyl-1H-pyrrole-3-carboxamide] | < 0.05 µM | > 30 µM
Cc1c(C(=O)Nc2ccnc(Cl)c2)c(C)n(C)c1C(=O)C(=O)N[C@H](C)C(F)(F)F [Example 208, (R)-N-(2-chloropyridin-4-yl)-1,2,4-trimethyl-5-(2-oxo-2-((1,1,1-trifluoropropan-2-yl)amino)acetyl)-1H-pyrrole-3-carboxamide] | < 0.05 µM | > 30 µM
Cc1c(C(=O)Nc2ccnc(Cl)c2)c(C)n(C)c1C(=O)C(=O)NC1C2CC3CC1CC(O)(C3)C2 [Example 209, N-(2-chloropyridin-4-yl)-5-(2-(((1R,2s,3S,5s,7s)-5-hydroxyadamantan-2-yl)amino)-2-oxoacetyl)-1,2,4-trimethyl-1H-pyrrole-3-carboxamide] | < 0.05 µM | > 30 µM
Cc1cc(NC(=O)c2c(C)c(C(=O)C(=O)N[C@H]3CC[C@@H](O)CC3)n(CCF)c2C)ccc1F [Example 210, N-(4-fluoro-3-methylphenyl)-1-(2-fluoroethyl)-5-(2-(((1s,4s)-4-hydroxycyclohexyl)amino)-2-oxoacetyl)-2,4-dimethyl-1H-pyrrole-3-carboxamide] | < 0.05 µM | > 30 µM
Cc1csc(NC(=O)C(=O)c2c(C)c(C(=O)Nc3ccc(F)c(C)c3)c(C)n2C)n1 [Example 211, N-(4-fluoro-3-methylphenyl)-1,2,4-trimethyl-5-(2-((4-methylthiazol-2-yl)amino)-2-oxoacetyl)-1H-pyrrole-3-carboxamide] | < 0.05 µM | > 30 µM
Cc1cc(NC(=O)c2c(C)c(C(=O)C(=O)Nc3ccc(F)nc3)n(C)c2C)ccc1F [Example 212, N-(4-fluoro-3-methylphenyl)-5-(2-((6-fluoropyridin-3-yl)amino)-2-oxoacetyl)-1,2,4-trimethyl-1H-pyrrole-3-carboxamide] | < 0.05 µM | 5 to 30 µM
Cc1cc(NC(=O)c2c(C)c(C(=O)C(=O)N[C@H]3CC[C@](C)(O)CC3)n(C)c2C)ccc1F [Example 213, N-(4-fluoro-3-methylphenyl)-5-(2-(((1r,4r)-4-hydroxy-4-methylcyclohexyl)amino)-2-oxoacetyl)-1,2,4-trimethyl-1H-pyrrole-3-carboxamide] | < 0.05 µM | > 30 µM
Cc1cc(NC(=O)c2c(C)c(C(=O)C(=O)N[C@H]3CC[C@@](C)(O)CC3)n(C)c2C)ccc1F [Example 214, N-(4-fluoro-3-methylphenyl)-5-(2-(((1s,4s)-4-hydroxy-4-methylcyclohexyl)amino)-2-oxoacetyl)-1,2,4-trimethyl-1H-pyrrole-3-carboxamide] | < 0.05 µM | > 30 µM
Cc1noc([C@H](C)NC(=O)C(=O)c2c(C)c(C(=O)Nc3ccc(F)c(C)c3)c(C)n2C)n1 [Example 215, (S)-N-(4-fluoro-3-methylphenyl)-1,2,4-trimethyl-5-(2-((1-(3-methyl-1,2,4-oxadiazol-5-yl)ethyl)amino)-2-oxoacetyl)-1H-pyrrole-3-carboxamide] | < 0.05 µM | > 30 µM
Cc1cc(NC(=O)C(=O)c2c(C)c(C(=O)Nc3ccc(F)c(C)c3)c(C)n2C)ccc1F [Example 216, N-(4-fluoro-3-methylphenyl)-5-(2-((4-fluoro-3-methylphenyl)amino)-2-oxoacetyl)-1,2,4-trimethyl-1H-pyrrole-3-carboxamide] | < 0.05 µM | 5 to 30 µM
Cc1cc(NC(=O)c2c(C)c(C(=O)C(=O)N[C@@H](C)CO)n(C)c2C)ccc1F [Example 217, (S)-N-(4-ffluoro-3-methylphenyl)-5-(2-((1-hydroxypropan-2-yl)amino)-2-oxoacetyl)-1,2,4-trimethyl-1H-pyrrole-3-carboxamide] | < 0.05 µM | > 30 µM
